# In patent US9914730B2, “Azaquinazoline inhibitors of Atypical protein Kinase C” (Ignyta, Inc., priority 2012, dated 2018):
# Biological target: T1, full-length human PKCι (Homo sapiens, UniProt P41743)
# T1 construct: Recombinant, full-length human PKCι expressed in Sf21 insect cells is also commercially available; purchased; host or cells: Sf21 insect cells
# T1 sequence (P41743 1-596): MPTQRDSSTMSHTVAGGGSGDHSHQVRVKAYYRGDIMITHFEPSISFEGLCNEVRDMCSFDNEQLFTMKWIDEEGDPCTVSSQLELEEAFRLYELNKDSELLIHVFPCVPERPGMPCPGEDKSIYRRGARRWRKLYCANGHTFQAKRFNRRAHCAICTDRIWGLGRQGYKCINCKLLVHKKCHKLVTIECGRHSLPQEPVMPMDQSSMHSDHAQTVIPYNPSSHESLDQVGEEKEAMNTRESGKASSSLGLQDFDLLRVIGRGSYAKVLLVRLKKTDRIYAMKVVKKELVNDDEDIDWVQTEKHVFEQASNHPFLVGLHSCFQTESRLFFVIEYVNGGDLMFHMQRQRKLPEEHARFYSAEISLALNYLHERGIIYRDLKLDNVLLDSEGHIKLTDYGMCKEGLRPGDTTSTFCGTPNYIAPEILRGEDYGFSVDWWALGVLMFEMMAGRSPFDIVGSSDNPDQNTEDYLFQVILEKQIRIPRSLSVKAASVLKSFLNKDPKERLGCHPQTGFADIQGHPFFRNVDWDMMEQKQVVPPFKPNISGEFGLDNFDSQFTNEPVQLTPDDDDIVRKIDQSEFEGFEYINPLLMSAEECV
# Assay: PKCι IC50 IMAP assay, full-length PKCι at 150 μM ATP
# Format: biochemical
# Conditions: read-out: IC50 in IMAP assay against full length PKCi at 150 μM ATP
# Summary of the method: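 Recombinant full-length human PKCι (Sf21-expressed, typically 15 pM) phosphorylated 100 nM 5FAM-labelled PKCε pseudosubstrate-derived peptide with 150 μM ATP (5× KM^APP) in 18 mM tris-HCl pH7.5, 9 mM MgCl2, EGTA, DTT, 4% DMSO. After 60 min at room temperature, IMAP binding reagent was added for 2 h and fluorescence polarisation read.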
row,IC50 [nM],Compound
1,< 100,"Fc1ccnc(Nc2cc(-c3nc(N4CCNCC4)c4c(C5CCC5)cncc4n3)ccn2)c1 [Example 785, [4-(5-Cyclobutyl-4-piperazin-1-yl-pyrido[3,4-d]pyrimidin-2-yl)-pyridin-2-yl]-(4-fluoro-pyridin-2-yl)-amine]"
2,< 100,"Fc1cc(F)c(F)c(Nc2cc(-c3nc(N4CCNCC4)c4c(C5CCC5)cncc4n3)ccn2)n1 [Example 786, [4-(5-Cyclobutyl-4-piperazin-1-yl-pyrido[3,4-d]pyrimidin-2-yl)-pyridin-2-yl]-(3,4,6-trifluoro-pyridin-2-yl)-amine]"
3,< 100,"CC1CN(c2nc(-c3ccnc(Nc4c(F)cccc4F)c3)nc3cncc(C4CC4)c23)CC(C)N1 (stereo not shown) [Example 787, {4-[5-Cyclopropyl-4-(3,5-dimethyl-piperazin-1-yl)-pyrido[3,4-d]pyrimidin-2-yl]-pyridin-2-yl}-(2,6-difluoro-phenyl)-amine]"
4,100 to 1000,"N#C[C@H]1CN(c2nc(-c3ccnc(Nc4c(F)cccc4F)c3)nc3cncc(C4CC4)c23)CCN1 [Example 788, (R)-4-{5-Cyclopropyl-2-[2-(2,6-difluoro-phenylamino)-pyridin-4-yl]-pyrido[3,4-d]pyrimidin-4-yl}-piperazine-2-carbonitrile]"
5,< 100,"Fc1cccc(F)c1Nc1cc(-c2nc(NC3CCNCC3)c3c(C4CC4)cncc3n2)ccn1 [Example 790, {5-Cyclopropyl-2-[2-(2,6-difluoro-phenylamino)-pyridin-4-yl]-pyrido[3,4-d]pyrimidin-4-yl}-piperidin-4-yl-amine]"
6,< 100,"Fc1cccc(F)c1Nc1cc(-c2nc(SC3CCNCC3)c3c(C4CC4)cncc3n2)ccn1 [Example 791, {4-[5-Cyclopropyl-4-(piperidin-4-ylsulfanyl)-pyrido[3,4-d]pyrimidin-2-yl]-pyridin-2-yl}-(2,6-difluoro-phenyl)-amine]"
7,100 to 1000,"CN1CCN(c2cccc(Nc3cc(-c4nc(N5C[C@H](O)[C@@H](O)C5)c5c(C6CC6)cncc5n4)ccn3)c2)CC1 [Example 793, (3S,4S)-1-(5-Cyclopropyl-2-{2-[3-(4-methyl-piperazin-1-yl)-phenylamino]-pyridin-4-yl}-pyrido[3,4-d]pyrimidin-4-yl)-pyrrolidine-3,4-diol]"
8,< 100,"c1cc(-c2nc(N3CCNCC3)c3c(C4CC4)cncc3n2)cc(Nc2cnn(C3CC3)c2)n1 [Example 794, [4-(5-Cyclopropyl-4-piperazin-1-yl-pyrido[3,4-d]pyrimidin-2-yl)-pyridin-2-yl]-(1-cyclopropyl-1H-pyrazol-4-yl)-amine]"
9,< 100,"c1cc(-c2nc(N3CCNCC3)c3c(C4CC4)cncc3n2)cc(Nc2cnn(C3CCOCC3)c2)n1 [Example 795, [4-(5-Cyclopropyl-4-piperazin-1-yl-pyrido[3,4-d]pyrimidin-2-yl)-pyridin-2-yl]-[1-(tetrahydro-pyran-4-yl)-1H-pyrazol-4-yl]-amine]"
10,< 100,"c1cc(-c2nc(N3CCNCC3)c3c(C4CC4)cncc3n2)cc(Nc2cnn(C3CCCC3)c2)n1 [Example 796, (1-Cyclopentyl-1H-pyrazol-4-yl)-[4-(5-cyclopropyl-4-piperazin-1-yl-pyrido[3,4-d]pyrimidin-2-yl)-pyridin-2-yl]-amine]"
11,100 to 1000,"CN(C)CCN(C)c1nc(-c2ccnc(Nc3c(F)cccc3F)c2)nc2cncc(C3CC3)c12 [Example 797, N-{5-Cyclopropyl-2-[2-(2,6-difluoro-phenylamino)-pyridin-4-yl]-pyrido[3,4-d]pyrimidin-4-yl}-N,N′,N′-trimethyl-ethane-1,2-diamine]"
12,< 100,"C[C@H]1CN(c2nc(-c3ccnc(Nc4nc(F)ccc4F)c3)nc3cncc(C4CCC4)c23)CCN1 [Example 798, {4-[5-Cyclobutyl-4-((S)-3-methyl-piperazin-1-yl)-pyrido[3,4-d]pyrimidin-2-yl]-pyridin-2-yl}-(3,6-difluoro-pyridin-2-yl)-amine]"
13,< 100,"Fc1ccc(F)c(Nc2cc(-c3nc(N4CCNCC4)c4c(C5CCC5)cncc4n3)ccn2)n1 [Example 799, [4-(5-Cyclobutyl-4-piperazin-1-yl-pyrido[3,4-d]pyrimidin-2-yl)-pyridin-2-yl]-(3,6-difluoro-pyridin-2-yl)-amine]"
14,< 100,"C[C@H]1CN(c2nc(-c3ccnc(Nc4ncccc4F)c3)nc3cncc(C4CC4)c23)CCN1 [Example 800, {4-[5-Cyclopropyl-4-((S)-3-methyl-piperazin-1-yl)-pyrido[3,4-d]pyrimidin-2-yl]-pyridin-2-yl}-(3-fluoro-pyridin-2-yl)-amine]"
15,< 100,"Fc1ccc(Cl)nc1Nc1cc(-c2nc(N3CCNCC3)c3c(C4CC4)cncc3n2)ccn1 [Example 801, (6-Chloro-3-fluoro-pyridin-2-yl)-[4-(5-cyclopropyl-4-piperazin-1-yl-pyrido[3,4-d]pyrimidin-2-yl)-pyridin-2-yl]-amine]"
16,< 100,"C[C@@H](Nc1cc(-c2nc(N3CCNCC3)c3c(C4CC4)cncc3n2)ccn1)c1nc(F)ccc1F [Example 802, [4-(5-Cyclopropyl-4-piperazin-1-yl-pyrido[3,4-d]pyrimidin-2-yl)-pyridin-2-yl]-[(R)-1-(3,6-difluoro-pyridin-2-yl)-ethyl]-amine]"
17,100 to 1000,"CN(C)CCCCNc1nc(-c2ccnc(Nc3c(F)cccc3F)c2)nc2cncc(C3CC3)c12 [Example 803, N-{5-Cyclopropyl-2-[2-(2,6-difluoro-phenylamino)-pyridin-4-yl]-pyrido[3,4-d]pyrimidin-4-yl}-N′,N′-dimethyl-butane-1,4-diamine]"
18,100 to 1000,"CN1CCN(c2cccc(Nc3cc(-c4nc(N5CCCCCC5)c5c(C6CC6)cncc5n4)ccn3)c2)CC1 [Example 804, [4-(4-Azepan-1-yl-5-cyclopropyl-pyrido[3,4-d]pyrimidin-2-yl)-pyridin-2-yl]-[3-(4-methyl-piperazin-1-yl)-phenyl]-amine]"
19,100 to 1000,"OC1CCN(c2nc(-c3ccnc(Nc4cccc(F)n4)c3)nc3cncc(C4CC4)c23)CC1 [Example 805, 1-{5-Cyclopropyl-2-[2-(6-fluoro-pyridin-2-ylamino)-pyridin-4-yl]-pyrido[3,4-d]pyrimidin-4-yl}-piperidin-4-ol]"
20,1000 to 10000,"O[C@@H]1CCCN(c2nc(-c3ccnc(Nc4cccc(F)n4)c3)nc3cncc(C4CC4)c23)C1 [Example 806, (R)-1-{5-Cyclopropyl-2-[2-(6-fluoro-pyridin-2-ylamino)-pyridin-4-yl]-pyrido[3,4-d]pyrimidin-4-yl}-piperidin-3-ol]"
21,< 100,"Fc1cc(F)c(Nc2cc(-c3nc(N4CCNCC4)c4c(C5CCC5)cncc4n3)ccn2)nc1F [Example 807, [4-(5-Cyclobutyl-4-piperazin-1-yl-pyrido[3,4-d]pyrimidin-2-yl)-pyridin-2-yl]-(3,5,6-trifluoro-pyridin-2-yl)-amine]"
22,< 100,"C[C@H]1CN(c2nc(-c3ccnc(Nc4nc(F)c(F)cc4F)c3)nc3cncc(C4CCC4)c23)CCN1 [Example 808, {4-[5-Cyclobutyl-4-((S)-3-methyl-piperazin-1-yl)-pyrido[3,4-d]pyrimidin-2-yl]-pyridin-2-yl}-(3,5,6-trifluoro-pyridin-2-yl)-amine]"
23,< 100,"FC(F)(F)c1ccc(Nc2cc(-c3nc(N4CCNCC4)c4c(C5CCC5)cncc4n3)ccn2)nc1 [Example 809, [4-(5-Cyclobutyl-4-piperazin-1-yl-pyrido[3,4-d]pyrimidin-2-yl)-pyridin-2-yl]-(5-trifluoromethyl-pyridin-2-yl)-amine]"
24,< 100,"C[C@@H](Nc1cc(-c2nc(N3CCNCC3)c3c(C4CC4)cncc3n2)ccn1)C1CC1 [Example 810, ((R)-1-Cyclopropyl-ethyl)-[4-(5-cyclopropyl-4-piperazin-1-yl-pyrido[3,4-d]pyrimidin-2-yl)-pyridin-2-yl]-amine]"
25,< 100,"C[C@@H](Nc1cc(-c2nc(N3CCNCC3)c3c(C4CC4)cncc3n2)ccn1)C1CCCCC1 [Example 811, ((R)-1-Cyclohexyl-ethyl)-[4-(5-cyclopropyl-4-piperazin-1-yl-pyrido[3,4-d]pyrimidin-2-yl)-pyridin-2-yl]-amine]"
26,< 100,"Fc1cc(C2CC2)cnc1Nc1cc(-c2nc(N3CCNCC3)c3c(C4CC4)cncc3n2)ccn1 [Example 812, (5-Cyclopropyl-3-fluoro-pyridin-2-yl)-[4-(5-cyclopropyl-4-piperazin-1-yl-pyrido[3,4-d]pyrimidin-2-yl)-pyridin-2-yl]-amine]"
27,< 100,"CC(C)(C)C(=O)N1CCC(Nc2cc(-c3nc(N4CCNCC4)c4c(C5CC5)cncc4n3)ccn2)CC1 [Example 813, 1-{4-[4-(5-Cyclopropyl-4-piperazin-1-yl-pyrido[3,4-d]pyrimidin-2-yl)-pyridin-2-ylamino]-piperidin-1-yl}-2,2-dimethyl-propan-1-one]"

row,Compound,IC50 [nM]
1,"Fc1cccc(F)c1Nc1cc(-c2nc(C3=CCNCC3)c3c(C4CC4)cncc3n2)ccn1 [Example 789, {4-[5-Cyclopropyl-4-(1,2,3,6-tetrahydro-pyridin-4-yl)-pyrido[3,4-d]pyrimidin-2-yl]-pyridin-2-yl}-(2,6-difluoro-phenyl)-amine]",100 to 1000
